From US20160200734A1, “CARBOXYLIC ACID COMPOUNDS IN TREATMENT OF DIABETES MELLITUS” (FUJIAN HAIXI PHARMACEUTICALS CO., LTD., priority 2013, published 2016)

Molecular target: T1, GPR40 (Homo sapiens, UniProt O14842)
T1 construct: expressed in transfected cells
Test: GPR40 Activation Assay (Wash Free Fluo-8 Calcium Assay)
Type: cell-based
Conditions: HEK293 cells stably expressing GPR40; fluorescence intensity Ex=494 nm, Em=516 nm
Protocol: This test procedure substantially carried out in accordance with the HDB company's Wash Free Fluo-8 Calcium Assay Kits. HEK293 cells stably expressing GPR40 were selected in a media containing Neomycin/G418. The cells were plated at a concentration of 30 uL 15,000 cells per well in black 384-well clear bottom tissue culture treated plates. The cells were incubated for 24 h in a incubator with 5% CO2.
According to Wash Free Fluo-8 Calcium Assay Kits operating instruction, one component A was dissolved in 210 uL DMSO, one component B was dissolved in 2.4 mL component C. After a 200 mM probenecid solution was prepared, 40 μL component A, 400 μL component B, 200 μL 200 mM probenecid and […] component C were mixed to a 20 mL test solution.
After removal of medium from the black 384-well dear bottom tissue culture treated plates by centrifuge, the test solution was added at 30 uL/well and the plates were incubated for 60 mins at 37° C. All test compounds were diluted to appropriate concentrations in HBSS buffer. Compounds were added to the cells and the wells were read fluorescence intensity at Ex=494 nm, Em=516 nm and readings were taken for 2 mins with an interval of 1 s. The compounds dose-dependent curve and EC50 were obtained by the Graphpad Prism4 software.

T1 sequence (O14842 whole entry, species assumed): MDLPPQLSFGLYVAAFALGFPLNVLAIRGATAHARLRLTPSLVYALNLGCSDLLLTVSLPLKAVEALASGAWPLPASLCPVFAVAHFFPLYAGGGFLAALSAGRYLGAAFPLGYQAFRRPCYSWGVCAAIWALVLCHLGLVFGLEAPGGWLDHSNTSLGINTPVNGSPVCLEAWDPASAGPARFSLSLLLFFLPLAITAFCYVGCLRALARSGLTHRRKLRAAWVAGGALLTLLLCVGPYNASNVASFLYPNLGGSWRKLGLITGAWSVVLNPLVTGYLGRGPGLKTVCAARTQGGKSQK

In order of rising EC50:
1. Cc1cc(OCCCS(C)(=O)=O)cc(C)c1-c1cccc2c1CCC2Oc1ccc2c(c1)SC[C@H]2CC(=O)O (stereo partly drawn) [Example 51, 2-((3S)-6-((4-(2,6-dimethyl-4-(3-(methylsulfonyl)propoxy)phenyl)-2,3-dihydro-1H-inden-1-yl)oxy)-2,3-dihydrobenzo[b]thiophen-3-yl)acetic acid]  878 nM
2. COCCCOc1cc(C)c(-c2cccc3c2CCC3Oc2ccc3c(c2)SC[C@H]3CC(=O)O)c(C)c1 (stereo partly drawn) [Example 53, 2-((3S)-6-((4-(4-(3-methoxypropoxy)-2,6-dlmethylphenyl)-2,3-dihydro-1H-inden-1-yl)oxy)-2,3-dihydrobenzo[b]thiophen-3-yl)acetic acid]  997 nM
3. CSCCCOc1cc(C)c(-c2cccc3c2CCC3Oc2ccc3c(c2)SC[C@H]3CC(=O)O)c(C)c1 (stereo partly drawn) [Example 52, 2-((3S)-6-((4-(2,6-dimethyl-4-(3-(metylthio)porpoxy)phenyl)-2,3-dihydro-1H-inden-1-yl)oxy)-2,3-dihydrobenzo[b]thiophen-3-yl)acetic acid]  1260 nM
